This is an account of results in US20110028539A1, “Biologically active taxane analogs and methods of treatment” (Tapestry Pharmaceuticals, Inc., priority 2007, published 2011).

SMILES strings stand for the structures.

Assay [1] deals with Breast Cancer MCF-7 NCI-AR. In words: Inhibition of cell growth, breast cancer MCF-7 NCI-AR (MDR+, wild type tubulin). Type of assay: cell-based. Conditions: Homo sapiens. The source says: (§1) Of note is the top part of the molecule illustrated above, which may be seen to have a 9-keto structure and 10-β hydroxy or 10-β acetoxy stereochemistry. The present application provides novel taxane analogs having a stereochemistry at the C-9 and C-10 OH positions of the molecule.

The test system of a further assay is Neuroblastoma SK-N-AS. In words: Inhibition of cell growth, neuroblastoma SK-N-AS. Conditions: Homo sapiens, concentration 0.1 ug/mL. The format is cell-based.
Text: as §1

The subject of assay [2] is Squamous Cell Carcinoma FADU. The assay is described as follows: Inhibition of cell growth, squamous cell carcinoma FADU. Type of assay: cell-based. Conditions: Homo sapiens, concentration 0.05 ug/mL.
Text: as §1

Assay [3] deals with Ovarian Carcinoma 1A9PTX10. In words: Inhibition of cell growth, ovarian carcinoma 1A9PTX10 (MDR-, mutant tubulin). The format is cell-based. The conditions noted are these: Homo sapiens, 1A9/ptx-10.
Text: as §1

The test system of assay [4] is bovine microtubule protein (tubulin plus MAP). In words: In vitro ED50 MT polymerization study (DAPI fluorescence tubulin assay). Type of assay: biochemical. The conditions noted are these: for ED50 Compound/ED50 Paclitaxel: ratio of tubulin polymerization ED50 to that of paclitaxel; for EC50: tubulin polymerization, 37° C., 30 minutes, maximum assembly = 25 μM paclitaxel. Here is the method:
In this tubulin binding assay, microtubule protein (MTP) is used as a substrate. The assay contains bovine tubulin plus microtubule associated proteins (MAP). MTP is polymerized into microtubules in the presence of DAPI (4′,6′-diamidino-2-phenylindole), a fluorescent compound. DAPI binds to tubulin; when microtubules are formed and there is an enhancement of fluorescence. The microtubule formation is measured as a function of time, using a fluorescence plate reader. […] The method used is based on the procedure published by Donna M. Barron, et al, “Fluorescence-based high-throughput assay for antimicrotuble drugs” Analytical Biochemistry, 315: 49-56, 2003, which is incorporated by reference in its entirety. The excitation wavelength, in that assay, was set at 370 nm and the emission wavelength was set at 450 nm for the DAN experiments.
A Bio-Tek FL 600 microplate Fluorescence used to measure the relative level of fluorescence in the DAPI assay.
Assays were conducted in 96-well plates. Each well contained a total volume of 0.1 mL consisting of PEM buffer (0.1 M Pipes, 1 mM EGTA, 1 mM MgCl2, pH 6.9), 0.2 mg bovine microtubule protein, and 10 μg of DAPI. […] The final DMSO concentration was 4%. The plates were incubated at 37° C. for 30 minutes and read in a fluorescence plate reader using an excitation wavelength of 360 nm and an emission wavelength of 460 nm. Fluorescence values were corrected for the sample without compound.
Experiments were done twice in triplicate. Results were subsequently combined and fit to a non-linear regression program.

The test system of the next assay is prostate DU145. The assay is described as follows: MTS proliferation assay, DU145. The format is cell-based. Conditions: Homo sapiens, DU-145, 48 to 72 hrs. Here is the method:
(§2) Day 1: Cells were plated in appropriate growth medium at 5×10^3 per well in 100 ul in 96 well tissue culture plates, Falcon, one for each drug to be tested. Col 1 was blank; it contained no cells, just medium. The plates were incubated overnight at 37° C., 5% CO2 to allow attachment,
(§3) Day 2: Added 120 ul growth medium in wells of 96-well “dilution plates” (one for each drug) and let sit in 37° C. incubator for about 1 hr.
(§4) Thawed DMSO drug stocks (usually at 10 mM). Each drug was diluted 6 ul into a tube with 3 ml growth medium, to 20 uM.
(§5) Aspirated medium from col 12 of a dilution plate; added 200-300 ul of 20 uM drug to wells of col 12. Made serial dilution down this 96-well plate: for a […] dilution pattern, moved 60 ul from col 12 to col 11, mixed 4-5 times (using 8 place multi-pipettor), moved 60 ul to col 10, etc. stopping at col 3.
(§6) Moved 100 ul of medium+drug from dilution plate to a cell plate, i.e. col 1 from drug plate (blank=no cells) to col 1 of cell plate, etc. up to col 12. Col 2 contained cells with no drug. Col 3 had the lowest concentration of drug (0.005 nM) and col 12 had the highest drug concentration (10 uM).
(§7) Day 4 or 5: Terminated the assay 48 to 72 hrs after drug addition. […] When the color turned dark in control wells (col 2), and was still light in col 12, the absorbance at 490 nm was read on a plate reader; the results were used to calculate IC50.

The nature of assay [5]: Biological evaluation of separated isomers of Formula 48 (activity comparison). Conditions: separated diastereoisomer vs mixture.
Another assay has as its system head/neck KB. In words: MTS proliferation assay, KB. The conditions noted are these: 48 to 72 hrs. The format is cell-based. Here is the method: as §2, §3, §4, §5, §6, §7
The next assay relates to Neuroblastoma SKNAS. The assay is described as follows: MTS proliferation assay, SKNAS. Conditions: Homo sapiens, SK-N-AS, 48 to 72 hrs. The format is cell-based. Here is the method: as §2, §3, §4, §5, §6, §7
The test system of another assay is uterine MESSA/Dox (MDR+). The assay is described as follows: MTS proliferation assay, MESSA/Dox (MDR+). Type of assay: cell-based. The conditions noted are these: Homo sapiens, MES-SA, 48 to 72 hrs. The protocol: as §2, §3, §4, §5, §6, §7
In the next assay the test system is colon HT29. In words: MTS proliferation assay, HT29. The format is cell-based. Conditions: Homo sapiens, HT-29, 48 to 72 hrs. Here is the method:
as §2, §3, §4, §5, §6, §7

A further assay deals with uterine MESSA. The assay is described as follows: MTS proliferation assay, MESSA. The format is cell-based. Conditions: Homo sapiens, MES-SA, 48 to 72 hrs. Here is the method:
as §2, §3, §4, §5, §6, §7

The next assay deals with head/neck FADU. In words: MTS proliferation assay, FADU. The format is cell-based. The conditions noted are these: Homo sapiens, 48 to 72 hrs. The protocol:
as §2, §3, §4, §5, §6, §7

A further assay has as its system prostate PC-3. The assay is described as follows: MTS proliferation assay, PC-3. Type of assay: cell-based. The conditions noted are these: prostate PC-3, MTS, 48 to 72 hrs. The protocol:
as §2, §3, §4, §5, §6, §7

In the next assay the test system is head/neck KBV (MDR+). In words: MTS proliferation assay, KBV (MDR+). The format is cell-based. Conditions: 48 to 72 hrs. The protocol:
as §2, §3, §4, §5, §6, §7

A further assay concerns breast MDA435s. The assay is described as follows: MTS proliferation assay, MDA435s. Type of assay: cell-based. Conditions: 48 to 72 hrs. Here is the method:
as §2, §3, §4, §5, §6, §7

In assay [1] (MCF7, concentration 40 ug/mL), `CC(=O)O[C@H]1C(=O)[C@@]2(C)[C@H]([C@H](OC(=O)c3ccccc3)[C@]3(O)C[C@H](OC(=O)[C@H](O)[C@@H](NC(=O)c4ccccc4)c4ccccc4)C(C)=C1C3(C)C)[C@]1(OC(C)=O)CO[C@@H]1C[C@@H]2O` [Paclitaxel, reference compound] showed an inhibition at 40 µg/mL of 55%. The inhibition at 0.1 µg/mL in the assay on Neuroblastoma SK-N-AS is 54%. The same compound displayed an inhibition at 0.05 µg/mL in assay [2] of 47%. For the same compound, in assay [3] (1A9PTX10, concentration 5 ug/mL), the inhibition at 5 µg/mL came to 55%.

`CC(=O)O[C@@]12CO[C@@H]1C[C@H](O)[C@@]1(C)C(=O)[C@H](O)C3=C(C)[C@@H](OC(=O)[C@H](O)[C@@H](NC(=O)OC(C)(C)C)c4ccccc4)C[C@@](O)([C@@H](OC(=O)c4ccccc4)[C@H]21)C3(C)C` [Docetaxel]: in assay [4], the “ED50 Compound/ED50 Paclitaxel” value is recorded as 1.07 and the concentration giving a half-maximal response (EC50) was determined as 3180 ± 450 nM.

Regarding `C=CC1O[C@H]2C[C@H]3OC[C@@]3(OC(C)=O)[C@H]3[C@H](OC(=O)c4ccccc4)[C@]4(O)C[C@H](OC(=O)[C@H](O)[C@@H](NC(=O)c5ccccc5)c5ccccc5)C(C)=C([C@H](OC(C)=O)[C@H](O1)[C@]23C)C4(C)C` (some centres unmarked) [Formula 45], the inhibition at 0.5 µg/mL was found to be 45% in assay [1] (MCF7, concentration 0.5 ug/mL) and 96% in assay [3] (1A9PTX10, concentration 0.5 ug/mL). In addition, the inhibition at 1 µg/mL in assay [1] (MCF7, concentration 1.0 ug/mL) was determined as 65%. In assay [1] (MCF7, concentration 2.0 ug/mL), testing at 2 µg/mL gave an inhibition of 94%. The compound further returned an inhibition at 0.25 µg/mL in [3] (1A9PTX10, concentration 0.25 ug/mL) of 93%.

Consider `C=C[C@H]1O[C@H]2C[C@H]3OC[C@@]3(OC(C)=O)[C@H]3[C@H](OC(=O)c4ccccc4)[C@]4(O)C[C@H](OC(=O)[C@H](O)[C@H](CC(C)C)NC(=O)OC(C)(C)C)C(C)=C([C@H](OC(C)=O)[C@H](O1)[C@]23C)C4(C)C` [Formula S-31], for which the IC50 is 60 nM in the assay with prostate DU145; 9.4 nM with head/neck KB; 11 nM in the assay on Neuroblastoma SKNAS; 44.8 nM in the assay with uterine MESSA/Dox (MDR+); 0.006 nM in the assay with colon HT29; 2.9 nM with uterine MESSA. The IC50 with head/neck FADU worked out at 21 nM; in the assay with prostate PC-3, 0.03 nM; in the assay on head/neck KBV (MDR+) it was 553 nM; in the assay with breast MDA435s it was 10 nM. Further, in assay [5], the “activity compared with the isomeric mixture (Formula 48)” value is “significantly more active than the isomeric mixture”. For the same compound, the “ED50 Compound/ED50 Paclitaxel” value in [4] is 0.53. Further, in assay [4], the EC50 worked out at 1580 ± 460 nM.

As to `C/C(=C\c1csc(C)n1)[C@@H]1C[C@@H]2O[C@]2(C)CCC[C@H](C)[C@H](O)[C@@H](C)C(=O)C(C)(C)[C@@H](O)CC(=O)O1` [Epothilone B], in [4], the “ED50 Compound/ED50 Paclitaxel” value is 1.11 and the EC50 worked out at 3310 ± 510 nM.
